Assay results as given in patent publication US8426604B2 (Janssen Pharmaceutica NV, priority 2010, dated 2013).

Target: T1, ERR1 (also known as ERR-α or ERR-1) (Homo sapiens, UniProt P11474)
T1 sequence (P11474 193-421 limits assumed): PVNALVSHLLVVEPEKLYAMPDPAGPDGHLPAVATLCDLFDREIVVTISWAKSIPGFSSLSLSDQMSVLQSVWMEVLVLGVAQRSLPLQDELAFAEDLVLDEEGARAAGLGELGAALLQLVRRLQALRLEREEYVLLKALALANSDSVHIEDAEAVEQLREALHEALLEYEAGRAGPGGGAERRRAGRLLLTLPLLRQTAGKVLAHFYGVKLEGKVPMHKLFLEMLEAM
Test: TR-FRET assay (disruption of co-activator peptide binding)
Type: biochemical
Conditions: 6His-tagged ERR1LBD, GST-hSRC2 co-activator peptide; average of 3 independent experiments
Protocol: Time-Resolved Fluorescence Resonance Energy Transfer (TR-FRET) experiments were performed to examine the functional response of ERR1 (also known as ERR-α or ERR-1) ligands. The TR-FRET assay described herein relied on the conformation of ERR1 for binding to a co-activator peptide: when a test compound binds to ERR1 and alters its conformation, it can disrupt the binding of the co-activator peptide. The components of this homogeneous secondary assay included: the ^6His-tagged-ERR1LBD, a GST-labeled-hSRC2 co-activator polypeptide and a fluorescent donor/acceptor pair from CIS bio international htrf/bioassays (Bedford, Mass.) using both an α-GST Europium Cryptate (Eu) label and an α^6His-XL665 (allophycocyanin) fluorophore.
For TR-FRET measurements, the reaction was buffered in 25 mM Tris pH 8, 2.5 mM Hepes, 20 mM KCl, 1 mM DTT, and 0.05 mg/mL BSA (-lipids). The final concentrations of reagents were 6 nM of ERR1LBD, 6 nM GST-SRC-2 peptide, 30 nM Eu cryptate, and 7.5 nM XL665. Reactions were allowed to reach equilibrium at 25° C. for 4-18 hours before collecting data on the Analyst from LJL Biosystems (Molecular Devices Sunnyvale, Calif.). As a time-resolved method, the samples were excited at […] and emission was collected for 1 ms at both 615 and 665 nm with delays of 400 and 75 μs, respectively. Dose response curves were fitted using a hyperbolic equation and the data reported is the average of 3 independent experiments.

| EC50 [nM] | Structure (SMILES) |
| --- | --- |
| 30 | CN(C1=NC(=O)/C(=C/c2ccc3c(cnn3Cc3ccc(C(F)(F)F)cc3C(F)(F)F)c2)S1)C1CCNC1 (stereo not shown) [Compound 28, 5-[1-(2,4-Bis-trifluoromethyl-benzyl)-1H-indazol-5-ylmethylene]-2-(methyl-pyrrolidin-3-yl-amino)-thiazol-4-one] |
| 67 | CN1CCC(N(C)C2=NC(=O)/C(=C/c3ccc4c(cnn4Cc4ccc(C(F)(F)F)cc4C(F)(F)F)c3)S2)C1 (stereo not shown) [Compound 29, 5-[1-(2,4-Bis-trifluoromethyl-benzyl)-1H-indazol-5-ylmethylene]-2-[methyl-(1-methyl-pyrrolidin-3-yl)-amino]-thiazol-4-one] |
| 12 | CN(CCO)C1=NC(=O)/C(=C/c2ccc3c(cnn3Cc3ccc(Cl)cc3C(F)(F)F)c2)S1 [Compound 30, 5-[1-(4-Chloro-2-trifluoromethyl-benzyl)-1H-indazol-5-ylmethylene]-2-[(2-hydroxy-ethyl)-methyl-amino]-thiazol-4-one] |
| 31 | CN(C[C@H](O)c1ccc(O)cc1)C1=NC(=O)/C(=C/c2ccc3c(cnn3Cc3ccc(Cl)cc3C(F)(F)F)c2)S1 [Compound 31, (R)-5-[1-(4-Chloro-2-trifluoromethyl-benzyl)-1H-indazol-5-ylmethylene]-2-{[2-hydroxy-2-(4-hydroxy-phenyl)-ethyl]-methyl-amino}-thiazol-4-one] |
| 15 | CCN(CC)CCN(C)C1=NC(=O)/C(=C/c2ccc3c(cnn3Cc3ccc(Cl)cc3C(F)(F)F)c2)S1 [Compound 32, 5-[1-(4-Chloro-2-trifluoromethyl-benzyl)-1H-indazol-5-ylmethylene]-2-[(2-diethylamino-ethyl)-methyl-amino]-thiazol-4-one] |
| 13 | CN(CCCn1cccn1)C1=NC(=O)/C(=C/c2ccc3c(cnn3Cc3ccc(Cl)cc3C(F)(F)F)c2)S1 [Compound 33, 5-[1-(4-Chloro-2-trifluoromethyl-benzyl)-1H-indazol-5-ylmethylene]-2-[methyl-(3-pyrazol-1-yl-propyl)-amino]-thiazol-4-one] |
| 17 | CN1CCC(CN(C)C2=NC(=O)/C(=C/c3ccc4c(cnn4Cc4ccc(Cl)cc4C(F)(F)F)c3)S2)C1 (stereo not shown) [Compound 34, 5-[1-(4-Chloro-2-trifluoromethyl-benzyl)-1H-indazol-5-ylmethylene]-2-[methyl-(1-methyl-pyrrolidin-3-ylmethyl)-amino]-thiazol-4-one] |
| 18 | CN1CCC(N(C)C2=NC(=O)/C(=C/c3ccc4c(cnn4Cc4ccc(Cl)cc4C(F)(F)F)c3)S2)C1 (stereo not shown) [Compound 35, 5-[1-(4-Chloro-2-trifluoromethyl-benzyl)-1H-indazol-5-ylmethylene]-2-[methyl-(1-methyl-pyrrolidin-3-yl)-amino]-thiazol-4-one] |
| 21 | CN(CC1(CO)CC1)C1=NC(=O)/C(=C/c2ccc3c(cnn3Cc3ccc(Cl)cc3C(F)(F)F)c2)S1 [Compound 36, 5-[1-(4-Chloro-2-trifluoromethyl-benzyl)-1H-indazol-5-ylmethylene]-2-[(1-hydroxymethyl-cyclopropylmethyl)-methyl-amino]-thiazol-4-one] |
| 69 | CCOC(=O)N1CCC(N(C)C2=NC(=O)/C(=C/c3ccc4c(cnn4Cc4ccc(Cl)cc4C(F)(F)F)c3)S2)CC1 [Compound 37, 4-({5-[1-(4-Chloro-2-trifluoromethyl-benzyl)-1H-indazol-5-ylmethylene]-4-oxo-4,5-dihydro-thiazol-2-yl}-methyl-amino)-piperidine-1-carboxylic acid ethyl ester] |
| 26 | CN(CCC#N)C1=NC(=O)/C(=C/c2ccc3c(cnn3Cc3ccc(Cl)cc3C(F)(F)F)c2)S1 [Compound 38, 3-({5-[1-(4-Chloro-2-trifluoromethyl-benzyl)-1H-indazol-5-ylmethylene]-4-oxo-4,5-dihydro-thiazol-2-yl}-methyl-amino)-propionitrile] |
| 25 | C=CCN(C)C1=NC(=O)/C(=C/c2ccc3c(cnn3Cc3ccc(Cl)cc3C(F)(F)F)c2)S1 [Compound 39, 2-(Allyl-methyl-amino)-5-[1-(4-chloro-2-trifluoromethyl-benzyl)-1H-indazol-5-ylmethylene]-thiazol-4-one] |
| 21 | COC[C@@H]1CC(N(C)C2=NC(=O)/C(=C/c3ccc4c(cnn4Cc4ccc(C(F)(F)F)cc4C(F)(F)F)c3)S2)CN1 (stereo partly shown) [Compound 40, 5-[1-(2,4-Bis-trifluoromethyl-benzyl)-1H-indazol-5-ylmethylene]-2-[(5-methoxymethyl-pyrrolidin-3-yl)-methyl-amino]-thiazol-4-one] |
| 30 | CN(C1=NC(=O)/C(=C/c2ccc3c(cnn3Cc3ccc(C(F)(F)F)cc3C(F)(F)F)c2)S1)C1CN[C@H](CO)C1 (stereo partly shown) [Compound 43, 5-[1-(2,4-Bis-trifluoromethyl-benzyl)-1H-indazol-5-ylmethylene]-2-[(5-hydroxymethyl-pyrrolidin-3-yl)-methyl-amino]-thiazol-4-one] |
| 32 | COC[C@@H]1CC(N(C)C2=NC(=O)/C(=C/c3ccc4c(cnn4Cc4ccc(C(F)(F)F)cc4C(F)(F)F)c3)S2)CN1C (stereo partly shown) [Compound 44, 5-[1-(2,4-Bis-trifluoromethyl-benzyl)-1H-indazol-5-ylmethylene]-2-[(5-methoxymethyl-1-methyl-pyrrolidin-3-yl)-methyl-amino]-thiazol-4-one] |
| 120 | CN(CC(O)CN)C1=NC(=O)/C(=C/c2ccc3c(cnn3Cc3ccc(Cl)cc3C(F)(F)F)c2)S1 (stereo not shown) [Compound 45, 2-[(3-Amino-2-hydroxy-propyl)-methyl-amino]-5-[1-(4-chloro-2-trifluoromethyl-benzyl)-1H-indazol-5-ylmethylene]-thiazol-4-one] |
| 22 | CN(Cc1cccnc1)C1=NC(=O)/C(=C/c2ccc3c(cnn3Cc3ccc(Cl)cc3C(F)(F)F)c2)S1 [Compound 46, 5-[1-(4-Chloro-2-trifluoromethyl-benzyl)-1H-indazol-5-ylmethylene]-2-(methyl-pyridin-3-ylmethyl-amino)-thiazol-4-one] |
| 17 | COCCN1CCC(CN(C)C2=NC(=O)/C(=C/c3ccc4c(cnn4Cc4ccc(Cl)cc4C(F)(F)F)c3)S2)C1 (stereo not shown) [Compound 47, 5-[1-(4-Chloro-2-trifluoromethyl-benzyl)-1H-indazol-5-ylmethylene]-2-{[1-(2-methoxy-ethyl)-pyrrolidin-3-ylmethyl]-methyl-amino}-thiazol-4-one] |
| 43 | CN(C1=NC(=O)/C(=C/c2ccc3c(cnn3Cc3ccc(Cl)cc3C(F)(F)F)c2)S1)C1CNC1 [Compound 48, 2-(Azetidin-3-yl-methyl-amino)-5-[1-(4-chloro-2-trifluoromethyl-benzyl)-1H-indazol-5-ylmethylene]-thiazol-4-one] |
| 41 | CNCC(O)CN(C)C1=NC(=O)/C(=C/c2ccc3c(cnn3Cc3ccc(Cl)cc3C(F)(F)F)c2)S1 (stereo not shown) [Compound 49, 5-[1-(4-Chloro-2-trifluoromethyl-benzyl)-1H-indazol-5-ylmethylene]-2-[(2-hydroxy-3-methylamino-propyl)-methyl-amino]-thiazol-4-one] |
| 23 | CN(CC(O)CN1CCCC1)C1=NC(=O)/C(=C/c2ccc3c(cnn3Cc3ccc(Cl)cc3C(F)(F)F)c2)S1 (stereo not shown) [Compound 50, 5-[1-(4-Chloro-2-trifluoromethyl-benzyl)-1H-indazol-5-ylmethylene]-2-[(2-hydroxy-3-pyrrolidin-1-yl-propyl)-methyl-amino]-thiazol-4-one] |
| 11 | CCN(CC)CCN(C)C1=NC(=O)/C(=C/c2ccc3c(c2)c(I)nn3Cc2ccc(C(F)(F)F)cc2C(F)(F)F)S1 [Compound 51, 5-[1-(2,4-Bis-trifluoromethyl-benzyl)-3-iodo-1H-indazol-5-ylmethylene]-2-[(2-diethylamino-ethyl)-methyl-amino]-thiazol-4-one] |
| 24 | CC(C(N)=O)N1CCC(N(C)C2=NC(=O)/C(=C/c3ccc4c(cnn4Cc4ccc(C(F)(F)F)cc4C(F)(F)F)c3)S2)CC1 (stereo not shown) [Compound 53, 2-(4-{[-5-({1-[2,4-Bis(trifluoromethyl)benzyl]-1H-indazol-5-yl}methylidene)-4-oxo-4,5-dihydro-1,3-thiazol-2-yl](methyl)amino}piperidin-1-yl)propionamide] |
| 21 | CN(C1=NC(=O)/C(=C/c2ccc3c(cnn3Cc3ccc(Cl)cc3C(F)(F)F)c2)S1)[C@H]1CCNC[C@H]1F [Compound 54, 5-({1-[4-Chloro-2-(trifluoromethyl)benzyl]-1H-indazol-5-yl}methylidene)-2-{[(3R,4S)-3-fluoropiperidin-4-yl](methyl)amino}-1,3-thiazol-4(5H)-one] |
| 13 | CN(C1=NC(=O)/C(=C/c2ccc3c(cnn3Cc3ccc(Cl)cc3C(F)(F)F)c2)S1)[C@H]1CCN(CC(N)=O)C[C@H]1F [Compound 55, 2-[(3R,4S)-4-{[-5-({1-[4-Chloro-2-(trifluoromethyl)benzyl]-1H-indazol-5-yl}methylidene)-4-oxo-4,5-dihydro-1,3-thiazol-2-yl](methyl)amino}-3-fluoropiperidin-1-yl]acetamide] |
